This note sets out measurements from ChEMBL document CHEMBL3400095, “β-sheet interfering molecules acting against β-amyloid aggregation and fibrillogenesis” (Bioorg Med Chem, 2015).

What is called IC50 is the concentration needed to halve the response being measured. A low value points to greater potency.

For assay [1], the species on record is Mus musculus. Description: Reduction in amyloid beta levels in Tg2576 mouse. In kind it is functional.
The species entered for assay [2] is Mus musculus. Description: Reduction in amyloid beta plaques in Tg2576 mouse. In kind it is functional.
The target of assay [3] is Amyloid-beta precursor protein (Homo sapiens, UniProt P05067). The assay can be described thus: Inhibition of amyloid beta (1 to 40) (unknown origin) aggregation.
Sequence of Amyloid-beta precursor protein (P05067 whole entry): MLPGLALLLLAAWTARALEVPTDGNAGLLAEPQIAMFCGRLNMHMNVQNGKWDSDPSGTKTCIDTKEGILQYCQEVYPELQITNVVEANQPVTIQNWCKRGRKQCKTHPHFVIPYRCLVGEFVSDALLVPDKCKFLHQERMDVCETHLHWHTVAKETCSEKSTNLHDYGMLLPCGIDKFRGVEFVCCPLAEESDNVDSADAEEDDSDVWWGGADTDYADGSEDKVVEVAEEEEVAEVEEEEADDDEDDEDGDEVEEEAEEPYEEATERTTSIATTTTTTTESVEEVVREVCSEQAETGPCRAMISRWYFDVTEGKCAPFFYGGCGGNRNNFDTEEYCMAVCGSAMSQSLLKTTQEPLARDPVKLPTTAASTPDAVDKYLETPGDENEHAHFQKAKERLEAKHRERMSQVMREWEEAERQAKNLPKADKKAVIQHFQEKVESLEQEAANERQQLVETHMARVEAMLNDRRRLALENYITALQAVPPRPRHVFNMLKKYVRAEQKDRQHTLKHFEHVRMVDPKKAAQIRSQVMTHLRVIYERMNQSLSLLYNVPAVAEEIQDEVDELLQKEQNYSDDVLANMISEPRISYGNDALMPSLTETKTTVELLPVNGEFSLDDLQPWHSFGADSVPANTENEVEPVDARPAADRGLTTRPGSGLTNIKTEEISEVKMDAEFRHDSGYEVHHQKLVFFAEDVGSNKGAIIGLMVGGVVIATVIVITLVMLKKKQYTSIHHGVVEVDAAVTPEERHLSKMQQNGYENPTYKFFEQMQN

For the molecule `O=C(O[C@@H]1Cc2c(O)cc(O)cc2O[C@@H]1c1cc(O)c(O)c(O)c1)c1cc(O)c(O)c(O)c1` [EPIGALOCATECHIN GALLATE], the “inhibition (INH)” value in the assay listed under Mus musculus [1] and in the assay filed under Mus musculus [2] was 50% in each case.

In assay [3], `CNc1ccc(C(=O)NC(CCCCCNC(=O)OCc2ccccc2)C(=O)O)cc1` (centres undefined) yielded an IC50 of 2.75 µM. In other words, the single-digit micromolar range. For `O=C(Cc1ccccc1)NC(CSSCC(NC(=O)Cc1ccccc1)C(=O)O)C(=O)O` (centres undefined), the IC50 in assay [3] was 1.95 µM.
